# Key:
# Format in all cases: cell-based, human
# UO-31 [1] = experiment: NCI-60 five-dose assay (renal cancer); details: 48 h, SRB
# BT-549 = experiment: NCI-60 five-dose assay (breast cancer); details: 48 h, SRB
# NCI-H460 = experiment: NCI-60 five-dose assay (non-small cell lung cancer); details: 48 h, SRB
# SNB-75 = experiment: NCI-60 five-dose assay (CNS cancer); details: 48 h, SRB
# NCI-H522 = experiment: NCI-60 five-dose assay (non-small cell lung cancer); details: 48 h, SRB
# PC-3 = experiment: NCI-60 five-dose assay (prostate cancer); details: 48 h, SRB
# KM12 = experiment: NCI-60 one-dose screen (colon cancer); details: 10 µM single dose, 48 h
# Experimental: (§1) The obtained quinolinequinones were submitted to NCI, Bethesda, USA, and, as per standard protocol of NCI, all compounds were evaluated for their antiproliferative activity at single-dose assay (10 µM concentration in DMSO) on a panel of 60 cancer cell lines derived from leukemia, non-small-cell lung, colon, CNS, melanoma, ovarian, renal, prostate, and breast, as per protocol. Tested compounds were added to the microtiter culture plates followed by incubation for 48 h at 37 °C. Sulforhodamine B (SRB), a protein-binding dye, is used for endpoint determination. The percent of the growth of the treated cells was determined in comparison to the untreated control cells and the results of each tested compound were reported. Data from one-dose experiments pertain to the percentage growth at 10 μM [16, 17, 18].
# HCT-116 = experiment: NCI-60 one-dose screen (colon cancer); details: 10 µM single dose, 48 h
# Experimental: as §1
# COLO 205 = experiment: NCI-60 one-dose screen (colon cancer); details: 10 µM single dose, 48 h
# Experimental: as §1
# SW-620 = experiment: NCI-60 one-dose screen (colon cancer); details: 10 µM single dose, 48 h
# Experimental: as §1
# HT29 [2] = experiment: NCI-60 one-dose screen (colon cancer)
# Experimental: as §1
# HCC-2998 [3] = experiment: NCI-60 one-dose screen (colon cancer); details: 10 µM single dose
# Experimental: as §1
# HCT-15 = experiment: NCI-60 one-dose screen (colon cancer); details: 10 µM single dose, 48 h
# Experimental: as §1
# NCI/ADR-RES = experiment: NCI-60 five-dose assay (ovarian cancer); details: 48 h, SRB
# IGROV1 = experiment: NCI-60 five-dose assay (ovarian cancer); details: SRB
# EKVX = experiment: NCI-60 five-dose assay (non-small cell lung cancer); details: 48 h, SRB
# HCC-2998 [4] = experiment: NCI-60 five-dose assay (colon cancer); details: 48 h, SRB
# MOLT-4 = experiment: NCI-60 five-dose assay (leukemia); details: 48 h, SRB
# SF-295 = experiment: NCI-60 five-dose assay (CNS cancer); details: 48 h, SRB
# HT29 [5] = experiment: NCI-60 five-dose assay (colon cancer); details: SRB
# MDA-MB-435 [6] = experiment: NCI-60 five-dose assay (melanoma); details: 48 h, SRB
# SF-268 = experiment: NCI-60 five-dose assay (CNS cancer); details: 48 h, SRB
# NCI-H23 = experiment: NCI-60 one-dose screen (non-small cell lung cancer); details: 10 µM single dose, 48 h
# SN12C = experiment: NCI-60 one-dose screen (renal cancer); details: 10 µM single dose, 48 h
# Experimental: as §1
# TK-10 = experiment: NCI-60 one-dose screen (renal cancer); details: 10 µM single dose, 48 h
# Experimental: as §1
# 786-0 = experiment: NCI-60 one-dose screen (renal cancer); details: 10 µM single dose, 48 h
# Experimental: as §1
# A498 = experiment: NCI-60 one-dose screen (renal cancer); details: 10 µM single dose, 48 h
# Experimental: as §1
# ACHN = experiment: NCI-60 one-dose screen (renal cancer); details: 10 µM single dose, 48 h
# Experimental: as §1
# UO-31 [7] = experiment: NCI-60 one-dose screen (renal cancer); details: 10 µM single dose, 48 h
# Experimental: as §1
# SK-MEL-5 = experiment: NCI-60 one-dose screen (melanoma); details: 10 µM single dose, 48 h
# Experimental: as §1
# SK-MEL-28 = experiment: NCI-60 one-dose screen (melanoma); details: 10 µM single dose, 48 h
# Experimental: as §1
# UACC-62 = experiment: NCI-60 one-dose screen (melanoma); details: 10 µM single dose, 48 h
# Experimental: as §1
# MDA-MB-435 [8] = experiment: NCI-60 one-dose screen (melanoma); details: 10 µM single dose, 48 h
# Experimental: as §1
# LOX IMVI = experiment: NCI-60 one-dose screen (melanoma); details: 10 µM single dose, 48 h
# Experimental: as §1
# MALME-3M = experiment: NCI-60 one-dose screen (melanoma); details: 10 µM single dose, 48 h
# Experimental: as §1
# UACC-257 = experiment: NCI-60 one-dose screen (melanoma); details: 10 µM single dose, 48 h
# Experimental: as §1
# SK-MEL-2 = experiment: NCI-60 one-dose screen (melanoma); details: 10 µM single dose
# Experimental: as §1
# SK-OV-3 = experiment: NCI-60 five-dose assay (ovarian cancer); details: 48 h, SRB
# [9] = Homo sapiens, read-out: LC50 (the source's name)
structure (smiles),measurement,setting,value
COc1cc(NC2=C(Cl)C(=O)c3nc(C)ccc3C2=O)cc(OC)c1 [AQQ5],TGI,UO-31 [1],3.06 µM
same,GI50,UO-31 [1]; Homo sapiens,1.69 µM
same,LC50 (lethal concentration 50%),UO-31 [1]; Homo sapiens,5.53 µM
same,TGI,BT-549,3.40 µM
same,GI50,BT-549; Homo sapiens,1.97 µM
same,LC50 (concentration giving 50% net cell kill),BT-549; Homo sapiens,5.87 µM
same,TGI,NCI-H460,8.07 µM
same,GI50,NCI-H460; Homo sapiens,2.68 µM
same,CC50,NCI-H460; [9],82.6 µM
same,TGI,SNB-75,5.37 µM
same,GI50,SNB-75; Homo sapiens,1.94 µM
same,LC50 (50% lethal concentration),SNB-75; Homo sapiens,23.2 µM
same,TGI,NCI-H522,3.06 µM
same,GI50,NCI-H522; Homo sapiens,1.56 µM
same,LC50,NCI-H522; Homo sapiens,6.02 µM
same,TGI,PC-3,10.4 µM
same,GI50,PC-3; Homo sapiens,2.56 µM
same,CC50,PC-3; [9],43.6 µM
same,GP (growth percentage),KM12,39.30%
same,GP (growth percentage),HCT-116,−97.84%
same,GP (growth percentage),COLO 205,−80.52%
same,GP (growth percentage),SW-620,−90.16%
same,GP (growth percentage),"HT29 [2]; 10 µM single dose, 48 h",24.91%
same,inhibition at 10 µM,"HT29 [2]; Homo sapiens, HT-29, 10 µM single dose",75.1%
same,GP (growth percentage),HCC-2998 [3]; 48 h,14.44%
same,inhibition at 10 µM,HCC-2998 [3]; Homo sapiens,85.6%
same,GP (growth percentage),HCT-15,−66.21%
same,TGI,NCI/ADR-RES,4.47 µM
same,GI50,NCI/ADR-RES; Homo sapiens,1.81 µM
same,CC50,NCI/ADR-RES; [9],21.7 µM
same,TGI,IGROV1; 48 h,3.55 µM
same,GI50,"IGROV1; Homo sapiens, IGROV-1, 48 h",1.73 µM
same,LC50,"IGROV1; Homo sapiens, IGROV-1, 48 h",7.26 µM
same,TGI,EKVX,3.12 µM
same,GI50,EKVX; Homo sapiens,1.6 µM
same,CC50,EKVX; [9],6.08 µM
same,TGI,HCC-2998 [4],3.26 µM
same,GI50,HCC-2998 [4]; Homo sapiens,1.81 µM
same,LC50 (concentration killing 50% of cells),HCC-2998 [4]; Homo sapiens,5.88 µM
same,TGI,MOLT-4,7.00 µM
same,GI50,MOLT-4; Homo sapiens,1.5 µM
same,LC50,MOLT-4; Homo sapiens,> 100 µM
same,TGI,SF-295,5.41 µM
same,GI50,SF-295; Homo sapiens,1.99 µM
same,LC50 (50% lethal concentration),SF-295; Homo sapiens,20.8 µM
same,TGI,HT29 [5]; 48 h,3.48 µM
same,GI50,"HT29 [5]; Homo sapiens, HT-29, 48 h",1.87 µM
same,LC50 (concentration killing 50% of cells),"HT29 [5]; Homo sapiens, HT-29, 48 h",6.48 µM
same,TGI,MDA-MB-435 [6],3.57 µM
same,GI50,MDA-MB-435 [6]; Homo sapiens,1.72 µM
same,CC50,MDA-MB-435 [6]; [9],7.39 µM
same,TGI,SF-268,14.4 µM
same,GI50,SF-268; Homo sapiens,3.25 µM
same,LC50 (concentration killing 50% of cells),SF-268; Homo sapiens,72.7 µM
same,GP (growth percentage),NCI-H23,−55.61%
same,GP (growth percentage),SN12C,−63.27%
same,GP (growth percentage),TK-10,−50.07%
same,GP (growth percentage),786-0,−59.47%
same,GP (growth percentage),A498,71.10%
same,GP (growth percentage),ACHN,−99.62%
same,GP (growth percentage),UO-31 [7],−94.65%
same,GP (growth percentage),SK-MEL-5,−74.93%
same,GP (growth percentage),SK-MEL-28,−73.06%
same,GP (growth percentage),UACC-62,−43.56%
same,GP (growth percentage),MDA-MB-435 [8],−87.43%
same,GP (growth percentage),LOX IMVI,−82.62%
same,GP (growth percentage),MALME-3M,−89.37%
same,GP (growth percentage),UACC-257,−92.05%
same,GP (growth percentage),SK-MEL-2; 48 h,5.03%
same,inhibition at 10 µM,SK-MEL-2; Homo sapiens,95%
same,TGI,SK-OV-3,25.1 µM
same,GI50,SK-OV-3; Homo sapiens,12.6 µM
same,LC50 (50% net cell kill),SK-OV-3; Homo sapiens,50.1 µM
